Measurements: ChEMBL document CHEMBL4396887, “Five-Membered N-Heterocyclic Scaffolds as Novel Amino Bioisosteres at γ-Aminobutyric Acid (GABA) Type A Receptors and GABA Transporters” (J Med Chem, 2019)
Calls of active or inactive are those of the source. No cut-off for these calls is given here.

Columns and labels:
[1] = target: T1, GABA-A receptor; alpha-1/beta-2/gamma-2 (Homo sapiens) (UniProt P14867+P47870+P18507); assay: Agonist activity at recombinant human GABA-A alpha1beta2gamma2S receptor transiently expressed in human tsA201 cells assessed as GABA-induced maximum response incubated for 30 mins and measured up to 90 secs by FMP dye based FLIPR membrane potential blue assay relative to GABA; type: cell-based
[2] = target: T2, Gamma-aminobutyric acid receptor subunit alpha-5/beta-2/gamma-2 (Homo sapiens, UniProt P18507+P31644+P47870); assay: Agonist activity at recombinant human GABA-A alpha5beta2gamma2S receptor transiently expressed in human tsA201 cells incubated for 30 mins and measured up to 90 secs by FMP dye based FLIPR membrane potential blue assay; type: cell-based
T2 sequence (P47870 whole entry): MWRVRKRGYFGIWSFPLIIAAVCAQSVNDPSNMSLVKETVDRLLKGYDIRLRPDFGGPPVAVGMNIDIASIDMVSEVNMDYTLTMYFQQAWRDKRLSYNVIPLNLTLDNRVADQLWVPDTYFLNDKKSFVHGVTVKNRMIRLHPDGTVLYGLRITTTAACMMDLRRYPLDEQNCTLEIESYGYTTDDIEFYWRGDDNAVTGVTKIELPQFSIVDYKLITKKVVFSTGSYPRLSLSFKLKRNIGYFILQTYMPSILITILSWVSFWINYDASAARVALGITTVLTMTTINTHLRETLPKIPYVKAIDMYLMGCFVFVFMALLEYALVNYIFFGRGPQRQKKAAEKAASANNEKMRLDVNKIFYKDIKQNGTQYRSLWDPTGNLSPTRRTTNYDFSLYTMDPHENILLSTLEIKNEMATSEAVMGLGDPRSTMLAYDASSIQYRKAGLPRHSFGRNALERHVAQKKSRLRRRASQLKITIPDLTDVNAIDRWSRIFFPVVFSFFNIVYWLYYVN
T2 sequence (P18507 whole entry): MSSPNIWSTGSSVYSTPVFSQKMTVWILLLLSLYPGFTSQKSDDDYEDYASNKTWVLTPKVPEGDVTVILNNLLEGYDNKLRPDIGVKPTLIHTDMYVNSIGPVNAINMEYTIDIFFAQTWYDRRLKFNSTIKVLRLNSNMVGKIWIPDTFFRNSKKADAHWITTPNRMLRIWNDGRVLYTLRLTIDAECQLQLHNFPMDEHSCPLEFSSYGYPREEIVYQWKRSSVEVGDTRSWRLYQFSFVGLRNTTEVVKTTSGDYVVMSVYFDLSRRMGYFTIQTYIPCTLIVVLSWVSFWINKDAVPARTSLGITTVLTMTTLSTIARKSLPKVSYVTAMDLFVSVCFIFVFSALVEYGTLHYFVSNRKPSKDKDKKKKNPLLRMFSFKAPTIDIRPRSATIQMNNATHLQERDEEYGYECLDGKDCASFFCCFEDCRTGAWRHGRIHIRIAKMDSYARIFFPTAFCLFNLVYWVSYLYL
T2 sequence (P31644 whole entry): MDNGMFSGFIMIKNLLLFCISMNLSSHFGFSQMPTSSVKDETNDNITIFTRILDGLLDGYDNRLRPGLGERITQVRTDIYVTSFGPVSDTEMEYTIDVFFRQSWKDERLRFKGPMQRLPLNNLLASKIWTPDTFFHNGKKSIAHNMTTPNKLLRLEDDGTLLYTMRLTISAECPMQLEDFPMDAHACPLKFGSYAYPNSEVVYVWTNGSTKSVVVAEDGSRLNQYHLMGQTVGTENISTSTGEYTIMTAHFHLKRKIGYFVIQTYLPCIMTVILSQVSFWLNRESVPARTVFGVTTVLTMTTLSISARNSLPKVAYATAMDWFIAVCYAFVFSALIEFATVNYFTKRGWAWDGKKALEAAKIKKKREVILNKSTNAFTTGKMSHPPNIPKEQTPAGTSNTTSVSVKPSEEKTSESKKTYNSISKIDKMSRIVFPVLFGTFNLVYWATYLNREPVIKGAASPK

[3] = target: Gamma-aminobutyric acid receptor subunit alpha-5/beta-2/gamma-2 (Homo sapiens) (UniProt P47870+P18507+P31644); assay: Agonist activity at recombinant human GABA-A alpha5beta2gamma2S receptor transiently expressed in human tsA201 cells assessed as GABA-induced maximum response incubated for 30 mins and measured up to 90 secs by FMP dye based FLIPR membrane potential blue assay relative to GABA; type: cell-based
[4] = target: T1, GABA-A receptor; alpha-1/beta-2/gamma-2 (Homo sapiens); assay: Agonist activity at recombinant human GABA-A alpha1beta2gamma2S receptor transiently expressed in human tsA201 cells at >= 100 uM incubated for 30 mins and measured up to 90 secs by FMP dye based FLIPR membrane potential blue assay; type: cell-based
[5] = target: T3, Gamma-aminobutyric acid receptor subunit alpha-4/beta-2/gamma-2 (Homo sapiens, UniProt P47870+P18507+P48169); assay: (§1) Agonist activity at recombinant human GABA-A alpha4beta2gamma2S receptor transiently expressed in human tsA201 cells incubated for 30 mins and measured up to 90 secs by FMP dye based FLIPR membrane potential blue assay; type: cell-based
T3 sequence (P48169 whole entry, one chain of several): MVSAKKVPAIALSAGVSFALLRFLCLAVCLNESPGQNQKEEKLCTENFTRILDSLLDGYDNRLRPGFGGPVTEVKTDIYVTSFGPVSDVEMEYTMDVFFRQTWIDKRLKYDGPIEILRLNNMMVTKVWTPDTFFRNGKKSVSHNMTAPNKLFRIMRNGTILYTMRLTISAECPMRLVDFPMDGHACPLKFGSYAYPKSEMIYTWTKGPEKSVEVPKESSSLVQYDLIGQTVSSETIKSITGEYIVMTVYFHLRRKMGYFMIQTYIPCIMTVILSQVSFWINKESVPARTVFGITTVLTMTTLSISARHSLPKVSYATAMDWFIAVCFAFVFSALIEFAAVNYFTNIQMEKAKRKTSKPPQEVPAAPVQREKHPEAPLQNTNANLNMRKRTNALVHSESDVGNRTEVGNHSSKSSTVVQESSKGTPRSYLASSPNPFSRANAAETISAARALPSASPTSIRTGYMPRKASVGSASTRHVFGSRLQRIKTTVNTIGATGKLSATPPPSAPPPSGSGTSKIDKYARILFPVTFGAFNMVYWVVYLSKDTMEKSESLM

[6] = cells; type: cell-based; conditions: Homo sapiens, tsA201, 0.5 h
[7] = target: T4, GABA-A receptor; alpha-1/beta-2/gamma-2 (Homo sapiens, UniProt P14867+P47870+P18507); assay: (§2) Agonist activity at recombinant human GABA-A alpha1beta2gamma2S receptor transiently expressed in human tsA201 cells incubated for 30 mins and measured up to 90 secs by FMP dye based FLIPR membrane potential blue assay; type: cell-based
T4 sequence (P14867 whole entry): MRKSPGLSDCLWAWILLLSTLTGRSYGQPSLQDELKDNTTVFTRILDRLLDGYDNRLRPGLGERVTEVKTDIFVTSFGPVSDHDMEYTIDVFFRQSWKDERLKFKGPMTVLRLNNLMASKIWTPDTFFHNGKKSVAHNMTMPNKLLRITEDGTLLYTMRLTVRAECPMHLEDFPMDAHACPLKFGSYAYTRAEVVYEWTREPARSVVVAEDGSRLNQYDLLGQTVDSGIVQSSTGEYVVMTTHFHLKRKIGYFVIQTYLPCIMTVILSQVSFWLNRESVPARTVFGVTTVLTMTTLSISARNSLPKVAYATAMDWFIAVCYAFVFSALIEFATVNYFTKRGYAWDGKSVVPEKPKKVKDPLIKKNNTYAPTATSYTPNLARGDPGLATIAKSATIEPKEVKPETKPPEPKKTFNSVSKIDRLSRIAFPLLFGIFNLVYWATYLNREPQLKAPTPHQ
T4 sequence (P47870 whole entry): T2 sequence (P47870 whole entry)
T4 sequence (P18507 whole entry): T2 sequence (P18507 whole entry)

[8] = target: T1, GABA-A receptor; alpha-1/beta-2/gamma-2 (Homo sapiens); assay: as §2; type: cell-based
[9] = target: T5, Gamma-aminobutyric acid receptor subunit rho-1 (Homo sapiens, UniProt P24046); assay: Antagonist activity at recombinant human GABA-A rho-1 receptor transiently expressed in human tsA201 cells incubated for 30 mins and measured up to 90 secs by FMP dye based FLIPR membrane potential blue assay; type: cell-based
T5 sequence (P24046 whole entry): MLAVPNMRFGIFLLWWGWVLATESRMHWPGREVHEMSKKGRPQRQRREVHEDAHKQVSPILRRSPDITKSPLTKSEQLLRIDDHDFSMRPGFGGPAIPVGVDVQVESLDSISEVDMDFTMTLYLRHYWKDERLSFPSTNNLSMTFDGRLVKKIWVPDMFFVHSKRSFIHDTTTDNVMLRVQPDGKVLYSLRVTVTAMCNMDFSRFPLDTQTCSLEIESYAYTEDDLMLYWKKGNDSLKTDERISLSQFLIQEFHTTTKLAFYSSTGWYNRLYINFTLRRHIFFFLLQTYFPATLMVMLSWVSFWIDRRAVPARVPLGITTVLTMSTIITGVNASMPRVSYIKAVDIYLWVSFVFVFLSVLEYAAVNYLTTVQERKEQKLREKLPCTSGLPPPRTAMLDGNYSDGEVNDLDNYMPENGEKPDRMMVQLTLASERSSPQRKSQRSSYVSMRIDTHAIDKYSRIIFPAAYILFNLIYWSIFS

[10] = target: GABA-A receptor; anion channel; assay: Displacement of [3H]muscimol from GABA(A) receptor in Sprague-Dawley rat cortical synaptic membranes by liquid scintillation counting
[11] = organism: Homo sapiens; assay: Agonist activity at recombinant human GABA-A alpha3beta2gamma2S receptor transiently expressed in human tsA201 cells assessed as GABA-induced maximum response incubated for 30 mins and measured up to 90 secs by FMP dye based FLIPR membrane potential blue assay relative to GABA; type: cell-based
[12] = target: T3, Gamma-aminobutyric acid receptor subunit alpha-4/beta-2/gamma-2; assay: Agonist activity at recombinant human GABA-A alpha4beta2gamma2S receptor transiently expressed in human tsA201 cells at >= 300 uM incubated for 30 mins and measured up to 90 secs by FMP dye based FLIPR membrane potential blue assay; type: cell-based
[13] = target: T5, Gamma-aminobutyric acid receptor subunit rho-1; assay: Agonist activity at recombinant human GABA-A rho-1 receptor transiently expressed in human tsA201 cells at 300 uM incubated for 30 mins and measured up to 90 secs by FMP dye based FLIPR membrane potential blue assay; type: cell-based
[14] = target: T3, Gamma-aminobutyric acid receptor subunit alpha-4/beta-2/gamma-2; assay: Agonist activity at recombinant human GABA-A alpha4beta2gamma2S receptor transiently expressed in human tsA201 cells assessed as GABA-induced maximum response incubated for 30 mins and measured up to 90 secs by FMP dye based FLIPR membrane potential blue assay relative to GABA; type: cell-based
[15] = target: T5, Gamma-aminobutyric acid receptor subunit rho-1; assay: Agonist activity at recombinant human GABA-A rho-1 receptor transiently expressed in human tsA201 cells incubated for 30 mins and measured up to 90 secs by FMP dye based FLIPR membrane potential blue assay; type: cell-based
[16] = Ionization constant, pKa2 of the compound at 1 mM by potentiometric titration assay; type: physicochemical
[17] = target: T5, Gamma-aminobutyric acid receptor subunit rho-1; assay: Agonist activity at recombinant human GABA-A rho-1 receptor transiently expressed in human tsA201 cells assessed as GABA-induced maximum response incubated for 30 mins and measured up to 90 secs by FMP dye based FLIPR membrane potential blue assay relative to GABA; type: cell-based
[18] = target: Gamma-aminobutyric acid receptor subunit alpha-4/beta-2/gamma-2 (Homo sapiens, UniProt P18507+P47870+P48169); assay: as §1; type: cell-based; conditions: read-out: EC50
Chain of Gamma-aminobutyric acid receptor subunit alpha-4/beta-2/gamma-2 (Homo sapiens, UniProt P18507+P47870+P48169) (P48169 whole entry, one chain of several): as the sequence (P48169 whole entry, one chain of several) above

[19] = target: T5, Gamma-aminobutyric acid receptor subunit rho-1; assay: Agonist activity at recombinant human GABA-A rho-1 receptor transiently expressed in human tsA201 cells at >= 100 uM incubated for 30 mins and measured up to 90 secs by FMP dye based FLIPR membrane potential blue assay; type: cell-based
[20] = target: T3, Gamma-aminobutyric acid receptor subunit alpha-4/beta-2/gamma-2; assay: Agonist activity at recombinant human GABA-A alpha4beta2gamma2S receptor transiently expressed in human tsA201 cells at >= 100 uM incubated for 30 mins and measured up to 90 secs by FMP dye based FLIPR membrane potential blue assay; type: cell-based
[21] = organism: Homo sapiens
[22] = organism: Homo sapiens; assay: Agonist activity at recombinant human GABA-A alpha3beta2gamma2S receptor transiently expressed in human tsA201 cells at >= 100 uM incubated for 30 mins and measured up to 90 secs by FMP dye based FLIPR membrane potential blue assay; type: cell-based

| Rmax [1] | EC50 [2] [µM] | Rmax [3] [%] | Activity [4] | EC50 [5] | pEC50 [5] | EC50 [7] | pEC50 [8] | Ki [10] [µM] | Rmax [14] | SMILES | EC50 ([6]; read-out: EC50) [µM] | EC50 ([6]; read-out: pEC50 (converted)) [µM] | Rmax [11] | pKa at 1000 µM [16] | Rmax [17] | Activity [19] | further results |
| --- | --- | --- | --- | --- | --- | --- | --- | --- | --- | --- | --- | --- | --- | --- | --- | --- | --- |
| inactive | 4.5 | 92 | Active | Not Active | inactive | Not Active | inactive | 2.2 | inactive | CC1(CC(=O)O)CSC(N)=N1 (configuration not stated) | 26 | 25.7 | 80% | – | – | – | IC50 [9]: 300 µM; Activity [12]: Active; Activity [13]: inactive |
| inactive | 24 | 85 | Active | Not Active | inactive | Not Active | inactive | 32 | inactive | Nc1nc(CC(=O)O)cs1 | – | – | inactive | 6.08 | inactive | Active | EC50 [15]: Not Active; pEC50 [15]: inactive; Activity [20]: Active; pEC50 [21]: inactive; Activity [22]: Active |

| SMILES | Rmax [1] | EC50 [2] [µM] | Rmax [3] [%] | Activity [4] | EC50 [5] | pEC50 [5] | EC50 [7] | pEC50 [8] | Ki [10] [µM] | Rmax [14] | EC50 ([6]; read-out: EC50) [µM] | EC50 ([6]; read-out: pEC50 (converted)) [µM] | Rmax [11] | pKa at 1000 µM [16] | Rmax [17] | Activity [19] | further results |
| --- | --- | --- | --- | --- | --- | --- | --- | --- | --- | --- | --- | --- | --- | --- | --- | --- | --- |
| O=C(O)Cc1c[nH]cn1 [IMIDAZOLE ACETIC ACID] | 46% | 1.8 | 92 | – | – | – | – | – | – | 81% | 8.1 | 8.13 | 89% | 7.13 | 46% | Active | EC50 ([15]; read-out: EC50): 4.6 µM; EC50 [18]: 19 µM |
